Active and inactive are the calls of the source. The rule behind the calls is not given here.
Experiments:
[1] = Growth inhibition against human BT-483 cells; type: functional
A549 = assay: Growth inhibition against human A549 cells; type: functional
SAS = assay: Growth inhibition against human SAS cells; type: functional
RAW264.7 [2] = assay: Inhibition of RANKL-induced osteoclastogenesis in mouse RAW264.7 cells assessed as decrease in TRAP-positive multi-nucleated cells after 5 days; type: functional, cell-based; settings: RAW264.7, 120 h
[3] = Cytotoxicity against mouse RAW264.7 cells assessed as cell survival rate at 10 uM by MTT assay; type: cell-based; settings: read-out: Survival
RAW264.7 [4] = assay: Ratio of EGCG IC50 for compound IC50 for inhibition of RANKL-induced osteoclastogenesis in mouse RAW264.7 cells; type: functional
RAW264.7 [5] = assay: Inhibition of RANKL-induced osteoclastogenesis in mouse RAW264.7 cells assessed as decrease in TRAP-positive multi-nucleated cells at 10 uM after 5 days; type: functional
RAW264.7 [6] = assay: Inhibition of RANKL-induced osteoclastogenesis in mouse RAW264.7 cells; type: functional, cell-based

Row | SMILES | IC50 (RAW264.7 [2]) [µM] | viability at 10 µM [3] [%] | other results
1 | COc1ccc2c(c1)/C(=N\OCCN1CCCC1)c1c-2c(O)nc2ccccc12 |  |  | GI50 [1]: 0.79 µM; GI50 (A549): 0.89 µM; GI50 (SAS): 0.84 µM
2 | COc1ccc2c(c1)/C(=N\O)c1c-2c(OC)nc2ccccc12 | 8.44 | 46.9 | 
3 | COc1ccc2c(c1)C(=O)c1c-2cnc2ccccc12 | 1.43 | 25.3 | Ratio IC50 (RAW264.7 [4]): 20
4 | COc1ccc2c(c1)C(=O)c1c-2c(SC)nc2ccccc12 | 2.58 | 86.6 | inhibition (RAW264.7 [5]): Active
5 | COc1ccc2c(c1)/C(=N\O)c1c-2cnc2ccccc12 | > 20 |  | 
6 | C#CCOc1ccc2c(c1)C(=O)c1c-2c(OCC#C)nc2ccccc12 | 9.46 | 30.9 | 
7 | C=CCOc1ccc2c(c1)C(=O)c1c-2c(=O)n(CC=C)c2ccccc12 | > 20 |  | 
8 | C=CCn1c(=O)c2c(c3ccccc31)C(=O)c1cc(OC)ccc1-2 | > 20 |  | 
9 | CO/N=C1\c2cc(OC)ccc2-c2cnc3ccccc3c21 | 4.79 | 55.4 | 
10 | CC(C)Oc1ccc2c(=O)c(-c3ccccc3)coc2c1 [IPRIFLAVONE] |  | 102 | inhibition at 10 µM (RAW264.7 [5]; RAW264.7, 120 h): 31%
11 | CCOc1nc2ccccc2c2c1-c1ccc(OC)cc1C2=O | > 20 |  | 
12 | C=CCSc1nc2ccccc2c2c1-c1ccc(OC)cc1C2=O | 15.6 | 106 | 
13 | COc1ccc2c(c1)C(=O)c1c-2c(S)nc2ccccc12 | 13.8 | 63 | 
14 | Cc1ccc(-n2c(=O)n3n(c2=O)C2C(=CC3)C(C)(C)Oc3cc(O)ccc32)cc1 (configuration not stated) |  |  | IC50 (RAW264.7 [6]): 6.97 µM
15 | O=C1c2cc(O)ccc2-c2c(O)nc3ccccc3c21 | 15.3 | 16.8 | 
16 | O=C(O[C@@H]1Cc2c(O)cc(O)cc2O[C@@H]1c1cc(O)c(O)c(O)c1)c1cc(O)c(O)c(O)c1 [EPIGALOCATECHIN GALLATE] | 29.8 |  | 
17 | COc1ccc2c(c1)C(=O)c1c-2c(OC)nc2ccccc12 | 2 | 100 | Ratio IC50 (RAW264.7 [4]): 15; inhibition (RAW264.7 [5]): Active
18 | COc1ccc2c(c1)C(=O)c1c-2c(=O)n(C)c2ccccc12 | 11.5 | 66.6 | 
19 | C=CCOc1nc2ccccc2c2c1-c1ccc(OC)cc1C2=O | 15.4 | 105 | 
20 | CO/N=C1\c2cc(OC)ccc2-c2c(OC)nc3ccccc3c21 | 7.97 | 62.3 | 
21 | C=CCOc1ccc2c(c1)C(=O)c1c-2c(OCC=C)nc2ccccc12 | 5.7 | 75.1 | inhibition (RAW264.7 [5]): Active
22 | CO/N=C1\c2cc(OC)ccc2-c2c(NOC)nc3ccccc3c21 | 1.58 | 105 | inhibition (RAW264.7 [5]): Active
23 | C#CCOc1ccc2c(c1)C(=O)c1c-2c(=O)n(CC#C)c2ccccc12 | > 20 |  | 
24 | COc1ccc2c(c1)C(=O)c1c-2c(N)nc2ccccc12 | > 20 |  | 
25 | CNc1nc2ccccc2c2c1-c1ccc(OC)cc1C2=O | 5.58 | 25.9 | 
26 | COc1ccc2c(c1)C(=O)c1c-2c(O)nc2ccccc12 | > 20 |  | 
27 | COc1ccc2c(c1)/C(=N\O)c1c-2c(O)nc2ccccc12 | 9.11 | 85.2 | 

From ChEMBL document CHEMBL1777753, “Discovery of indeno[1,2-c]quinoline derivatives as inhibitors of osteoclastogenesis induced by receptor activator of NF-κB ligand (RANKL)” (J Med Chem, 2011)
